# Assay results from patent US20080057134A1, “Antifungal compositions and method” (AgION Technologies, Inc., priority 2006, published 2008).
# System: Aspergillus niger
# Assay: Direct inoculation fungal testing of coated filter paper (modified ASTM G21)
# Assay type: cell-based
# Conditions: text summary of Tables 1 and 2, Aspergillus niger
compound,measurement,value
"Cc1cc(CC(C)CC(C)(C)C)n(O)c(=O)c1.NCCO (stereo not shown) [picrotone olamine, monoethanolamine salt of hydroxymethyl trimethylpentyl pyridone]",antifungal properties / bioefficacy in words,excellent to good antifungal properties
